Laboratory results from US20230150951A1, “2,5- OR 2,6-DISUBSTITUTED HYDROQUINONE DERIVATIVES WITH AT LEAST ONE CARBOXY, SULFO OR AMIDO GROUP USEFUL AS MEDICAMENTS” (OM PHARMA SA, priority 2020, published 2023).

How the values were obtained:
Type in all cases: cell-based
FGF-1 = target: T1, FGF-1 (Homo sapiens, UniProt P05230); assay: FGF-1 induced sprouting of HUVEC, spheroid-based cellular angiogenesis assay; settings: FGF-1 25 ng/mL preincubated with compound, 24 h
T1 construct: purchased Peprotech 100-17A
Description: (§1) Aim of this in vitro method is to assess compounds effects on FGF-2, FGF-1, or VEGF-A induced sprouting of human umbilical vein endothelial cells (HUVEC) in the spheroid-based cellular angiogenesis assay. Before adding the growth factors to the cells, they were preincubated with the compound. Sunitinib was tested as a control (without preincubation).
(§2) IC50 values determined for the tested compounds are expressed in microM [μM] and the values for the inhibition of FGF-1, FGF2 and VEGF-A induced growth (sprouting) are listed after each compound in the examples after chemical characterization.
(§3) Sprouting test was performed on the compounds dissolved in DMSO to reach 100-fold concentrated stock solutions and dissolved in culture media. Sunitinib as reference compound was provided by ProQinase GmbH. Growth factors were purchased from rhFGF-basic (FGF-2), Peprotech, New Jersey, USA, #100-18C, Lot #0415571; rhFGF-acidic (FGF-1), Peprotech, New Jersey, USA, #100-17A, Lot #031207; hVEGF-A165 (ProQinase GmbH, Freiburg, Germany; 05.02.2010) were used for stimulation of HUVEC cells growth.
(§4) Test system: Endothelial cells from human umbilical vein (HUVEC) from pooled donors were stored frozen with 70% medium, 20% FCS, 10% DMSO at about 1×10^6 cells/ampoule. HUVEC cells, primary human umbilical vein endothelial cells (PromoCell, Heidelberg, Germany), were used after passage 3 to 4. Morphology of the cells are adherent, cobblestone-like growing as monolayer and were cultured in endothelial cell growth and basal medium (ECGM/ECBM, PromoCell). The subculture was split 1:3; every 3-5 days, seed out at ca. 1×10^4 cells/cm^2 and incubated at 37° C. with 5% CO2 with a doubling time 24-48 hours
(§5) Dilution of test compounds: 100× concentrated solutions (concerning to the final assay concentrations) of each test compound were prepared with the appropriate solvent (in DMSO or in water). These 100×compound solutions were further diluted in endothelial cell growth and basal medium (ECBM) 1:7.5 to get a 13.33× concentrated solution. 75 μl of the 13.33×solution was subsequently mixed with 25 μl of 40× concentrated stimulus (solved in ECBM), resulting in a 10×concentrated stimulus/compound mixture. This mixture (100 μl) was incubated for 30 min at 37° C. and then added to 900 μl gel, containing the HUVEC spheroids (resulting in the final assay concentration).
(§6) Test method: the experiments were pursued in modification of the originally published protocol (Korff and Augustin: J Cell Sci 112: 3249-58, 1999). In brief, spheroids were prepared as described (Korff and Augustin: J Cell Biol 143: 1341-52, 1998) by pipetting 400 HUVEC in a hanging drop on plastic dishes to allow overnight spheroid aggregation. 50 HUVEC spheroids were then seeded in 0.9 ml of a collagen gel and pipetted into individual wells of a 24 well plate to allow polymerization. The test compounds were preincubated with the growth factors (FGF-1, FGF-2 or VEGF-A final concentration 25 ng/mL) in a 10-fold concentrated solution and subsequently, 100 μl of this solution was added on top of the polymerized gel. All compounds were diluted in solvent (DMSO or water) as 100×stocks first (which means 100×stocks of each final assay concentration were prepared in solvent). Subsequently, these stocks were further diluted in medium (resulting in the 13.33×stocks of each final assay concentration) with final concentrations tested: 100, 50, 25, 12.5, 6.25, 3.13 and 1.56×10^−6 M). Plates were incubated at 37° C. for 24 hours and fixed by adding 4% PFA (Roth, Karlsruhe, Germany).
(§7) Quantification of growth factor inhibition: sprouting intensity of HUVEC spheroids treated with the growth factor and the inhibitors were quantitated by an image analysis system determining the cumulative sprout length per spheroid (CSL).

Human neutrophils [1] = assay: Neutrophil adhesion under static conditions; settings: fMLP-stimulated adhesion to fibrinogen; method: 40 μM and 80 μM, concentration of the value not stated
Description: Human neutrophils obtained from buffy coats of healthy donors were suspended at 3×10^6/ml in adhesion buffer (PBS containing 1 mM CaCl2)/MgCl2 and 10% FCS, pH 7.2). Neutrophils were preincubated for 30 min at 37° C. with 40 μM and 80 μM of the compounds.
Adhesion assays were performed on 18-well glass slides coated for 18 h at 4° C. with human fibrinogen (20 μg/well in endotoxin-free PBS); 20 μl of cell suspension were added to each well and stimulated for 1 min at 37° C. with 5 μl of fMLP 1 nM final concentration. After washing, adherent cells were fixed in glutaraldehyde 1.5% in PBS and counted by computer-assisted enumeration. Statistical analysis was performed by calculating mean and standard deviation (SD); significance was calculated by unpaired t-test. All statistical analyses were performed using GraphPad Prism 6 (GraphPad Software).

VEGF-A = target: T2, VEGF-A (Homo sapiens, UniProt P15692); assay: VEGF-A induced sprouting of HUVEC, spheroid-based cellular angiogenesis assay; settings: VEGF-A 25 ng/mL preincubated with compound, 24 h, read-out: VEGF-A1 IC50
T2 construct: purchased ProQinase GmbH
T2 sequence (P15692 27-191 isoform P15692-4): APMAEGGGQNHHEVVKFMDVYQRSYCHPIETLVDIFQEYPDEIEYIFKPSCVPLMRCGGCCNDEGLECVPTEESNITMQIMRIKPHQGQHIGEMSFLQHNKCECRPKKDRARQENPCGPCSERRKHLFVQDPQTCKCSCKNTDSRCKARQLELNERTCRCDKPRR
Description: as §1, §2, §3, §4, §5, §6, §7

FGF-2 = target: T3, FGF-2 (Homo sapiens, UniProt P09038); assay: FGF-2 induced sprouting of HUVEC, spheroid-based cellular angiogenesis assay; settings: FGF-2 25 ng/mL preincubated with compound, 24 h
T3 construct: purchased Peprotech 100-18C
Description: as §1, §2, §3, §4, §5, §6, §7

Human neutrophils [2] = assay: Inhibition of ROS production in human neutrophils (isoluminol chemiluminescence); settings: fMLP+TNF-α stimulated PMN
Description: NADPH oxidase, located in the plasma membrane and in the membranes of specific granules, produces superoxide anions from which other ROS, such as hydrogen peroxide, singlet oxygen, hypochlorite, and active hydroxyl radicals. ROS are released into the surrounding medium or into a membrane-enclosed subcellular organelle. One quick and sensitive method for measuring the generation of these metabolites is chemiluminescence (CL). Isoluminol amplified CL technique, is very sensitive and widely used to study respiratory burst (mainly extracellular production of ROS) induced in neutrophils.
Human neutrophils were isolated from buffy coats which obtained from healthy donors. The isolated neutrophils (3×10^6/ml) were suspended in Hanks' Balanced Salt Solution (HBSS) with Calcium and Magnesium. Neutrophils were pre-incubated with the compounds at different concentrations (0.1, 0.3, 1, 3 and 10 μM) for 30 min at 37° C. The black 96-well cell culture plates were coated with human fibrinogen (0.25 mg/ml in PBS), and incubated overnight at 4° C. or 2 hr at 37° C. Then the plates were washed with endotoxin-free PBS. The neutrophils were incubated (priming) with TNF-α (20 ng/ml) for 10 minutes at 37° C. Thereupon the 75 μl of cell suspension and 75 μl (Isoluminol+HRP solution) were added to each well. The chemiluminescence was recorded (every 25 sec for 250 sec) after fMLP (1 μM) activation using a Multilabel Reader victor3 (Perkin Elmer, USA). Background values, defined as the mean chemiluminescent values of isoluminol diluted in HBSS, were subtracted from all readings (CPS, count per second). The assays were done in duplicate or triplicate.

VEGFR-2 = target: T4, VEGFR-2 (Homo sapiens, UniProt P35968); assay: VEGF-165 induced phosphorylation of VEGF-Receptor on HUVEC; settings: HUVEC preincubated 60 min, VEGF165 25 ng/mL 2 min; read-out: VEGFR-Phosphorylation inhibition IC50
T4 construct: endogenous in cells; host or cells: primary HUVEC
Description: Cell culture: Primary human umbilical vein endothelial cells (HUVECs) were routinely cultured in 0.1% gelatin pre-coated flasks or dishes, up to passage 6. […]
Rabbit primary antibodies for VEGFR-2, p-Tyr1175 were acquired from Cell Signaling Technology (Leiden, The Netherlands). Phospho-VEGFR-2 (Tyr1175) Sandwich ELISA Kit was from Cell Signaling Technology.
[…] Western blot analysis was performed using anti-phospho-VEGFR-2 antibody and total VEGFR-2 was used as a loading control after membrane stripping.
Inhibition of VEGFR-2-phosphorylation results are expressed as IC50 in microM [μM] versus VEGF-treated HUVECs control without inhibitory compound.

[3] = Homo sapiens, Neutrophil, 0.3 μM

T1 sequence (P05230 whole entry): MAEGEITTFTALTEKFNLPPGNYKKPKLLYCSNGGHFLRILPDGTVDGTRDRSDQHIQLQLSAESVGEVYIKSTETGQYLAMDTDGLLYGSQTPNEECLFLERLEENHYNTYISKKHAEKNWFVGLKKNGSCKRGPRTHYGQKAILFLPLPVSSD
T3 sequence (P09038 134-288): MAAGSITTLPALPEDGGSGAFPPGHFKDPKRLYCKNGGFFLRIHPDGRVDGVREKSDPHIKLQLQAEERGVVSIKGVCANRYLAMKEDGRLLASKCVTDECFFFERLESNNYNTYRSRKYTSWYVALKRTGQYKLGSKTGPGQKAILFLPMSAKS
T4 sequence (P35968 20-1356): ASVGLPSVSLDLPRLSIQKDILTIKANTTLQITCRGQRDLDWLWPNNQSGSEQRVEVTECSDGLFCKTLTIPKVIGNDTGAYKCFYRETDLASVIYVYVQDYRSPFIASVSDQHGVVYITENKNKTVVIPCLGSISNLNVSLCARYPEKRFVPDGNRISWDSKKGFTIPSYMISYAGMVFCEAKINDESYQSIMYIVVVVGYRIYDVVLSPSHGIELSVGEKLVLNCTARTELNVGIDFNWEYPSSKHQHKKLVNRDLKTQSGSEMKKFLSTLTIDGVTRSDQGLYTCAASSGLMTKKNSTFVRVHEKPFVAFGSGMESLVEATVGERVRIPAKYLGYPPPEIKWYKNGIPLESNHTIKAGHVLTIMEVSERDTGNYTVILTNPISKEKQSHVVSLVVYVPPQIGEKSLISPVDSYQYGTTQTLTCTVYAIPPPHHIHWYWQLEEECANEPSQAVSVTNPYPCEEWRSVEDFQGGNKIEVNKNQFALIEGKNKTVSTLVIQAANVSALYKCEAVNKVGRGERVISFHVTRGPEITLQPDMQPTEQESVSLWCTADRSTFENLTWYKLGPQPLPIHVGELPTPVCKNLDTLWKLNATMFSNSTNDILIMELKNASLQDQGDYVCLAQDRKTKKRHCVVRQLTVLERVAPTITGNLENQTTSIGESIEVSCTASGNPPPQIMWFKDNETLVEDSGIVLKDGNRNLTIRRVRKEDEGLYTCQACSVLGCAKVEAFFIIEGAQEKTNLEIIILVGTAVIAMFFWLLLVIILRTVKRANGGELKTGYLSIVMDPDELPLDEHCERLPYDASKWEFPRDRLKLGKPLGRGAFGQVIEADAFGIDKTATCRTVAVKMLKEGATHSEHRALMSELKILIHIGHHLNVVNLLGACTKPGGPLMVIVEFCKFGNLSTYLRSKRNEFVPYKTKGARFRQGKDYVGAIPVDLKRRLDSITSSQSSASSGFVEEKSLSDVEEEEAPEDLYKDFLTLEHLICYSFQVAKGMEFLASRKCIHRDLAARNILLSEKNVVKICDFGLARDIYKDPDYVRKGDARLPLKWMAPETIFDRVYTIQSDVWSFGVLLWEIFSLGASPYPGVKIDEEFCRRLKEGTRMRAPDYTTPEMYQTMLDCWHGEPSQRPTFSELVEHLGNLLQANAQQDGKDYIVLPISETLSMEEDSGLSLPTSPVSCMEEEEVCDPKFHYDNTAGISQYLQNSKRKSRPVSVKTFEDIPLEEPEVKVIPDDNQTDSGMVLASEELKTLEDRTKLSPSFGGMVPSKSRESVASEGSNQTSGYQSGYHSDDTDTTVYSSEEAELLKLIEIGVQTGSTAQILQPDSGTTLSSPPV

Row | Compound | IC50 (FGF-1) [µM] | Neutrophil adhesion inhibition (Human neutrophils [1]) [%] | IC50 (VEGF-A) [µM] | IC50 (FGF-2) [µM] | inhibition at 0.3 µM (Human neutrophils [2]; [3]) [%] | PMN ROS inhibition at 0.3 μM (Human neutrophils [2]; 0.3 μM) [%] | IC50 (VEGFR-2) [µM] | IC50 (Human neutrophils [2]; Homo sapiens, Neutrophil) [µM]
1 | CCOC(=O)Cc1cc(O)c(C(=O)Nc2ccccc2C(=O)OC)cc1O [IIIa-001a-E2, methyl 2-(4-(ethoxycarbonylmethyl)-2,5-dihydroxybenzamido)benzoate] | ≥ 200 | 44.46 | 43 | 33 | 69.7 |  |  | 
2 | O=C(O)c1cc(O)c(C(=O)NC(C(=O)O)c2ccc(O)c(O)c2)cc1O (stereo not shown) [Ia-036a, 4-(Carboxy(3,4-dihydroxyphenyl)methylaminocarbonyl)-2,5-dihydroxybenzoic acid] |  | 30.77 | 123 | 37 |  | 87.17 | 1.6 | 
3 | O=C(O)c1cc(NC(=O)c2cc(O)cc(C(=O)O)c2O)cc(NC(=O)c2cc(O)cc(C(=O)O)c2O)c1 [IIb-010a, 3,5-Bis(2,5-dihydroxy-3-carboxybenzoylamino)benzoic acid] | ≥ 200 | 59.84 | 28 | 102 | 81.9 |  |  | 
4 | O=C(O)c1cc(O)cc(C(=O)Nc2ccccc2-c2nnn[nH]2)c1O [IIa-001a-Tz, 3-(2-(1H-tetrazol-5-yl)phenylaminocarbonyl)-2,5-dihydroxybenzoic acid] |  | 24.18 | 187 | 9.8 | 74.2 |  |  | 
5 | O=C(O)c1cc(O)ccc1NC(=O)c1cc(O)cc(C(=O)O)c1O [IIa-006a, 3-(2-carboxy-4-hydroxyphenylaminocarbonyl)-2,5-dihydroxybenzoic acid] |  | 20.29 | 121 | 43 | 84.3 |  | 2.9 | 
6 | O=C(O)c1ccc(C(=O)O)c(NC(=O)c2cc(O)cc(C(=O)O)c2O)c1 [IIa-012a, 2-(3-carboxy-2,5-dihydroxybenzamido)terephthalic acid] |  | 7.5 | 32 |  | 44.8 |  | 3.31 | 0.313
7 | O=C(Nc1ccc(O)cc1C(=O)O)c1cc(O)c(C(=O)Nc2ccc(O)cc2C(=O)O)cc1O [Ic-009a, 2-(2,5-dihydroxy-4-(4-hydroxy-2-carboxyphenylaminocarbonyl)benzamido)-5-hydroxy benzoic acid] | 32 | 72.21 | 208 | 202 | 72.8 |  |  | 
8 | CCOC(=O)c1cc(OC(C)=O)c(C(=O)Nc2ccccc2-c2nnn[nH]2)cc1OC(C)=O [Ia-001a-Tz-E1-A2, ethyl 4-(2-(1H-tetrazol-5-yl)phenylaminocarbonyl)-2,5-diacetoxybenzoate] | 60 | 98.2 | ≥ 200 | ≥ 200 | 49.9 |  |  | 
9 | CCOC(=O)Cc1cc(O)c(C(=O)Nc2cc(C(=O)OCC)cc(C(=O)OCC)c2)cc1O [IIIa-015a-E3, diethyl 5-(4-(ethoxycarbonylmethyl)-2,5-dihydroxybenzamido)isophthalate] |  | 61.22 | 87 | 191 | 91.4 |  | 7.2 | 
10 | O=C(O)c1cc(O)c(C(=O)Nc2cnccc2C(=O)O)cc1O [Ia-023a, 3-(4-carboxy-2,5-dihydroxybenzamido)isonicotinic acid] |  | 13.37 | 143 | 63 | 62 |  | ≥ 100 | 
11 | CCOC(=O)c1cc(O)c(C(=O)Nc2cnccc2C(=O)OCC)cc1O [Ia-023a-E2, ethyl 3-(4-(ethoxycarbonyl)-2,5-dihydroxybenzamido)isonicotinate] |  | 34 | 141 | 76 | 69.5 |  | 6.6 | 
12 | O=C(O)c1cc(O)c(COCc2cc(O)c(C(=O)O)cc2O)cc1O [IIIc-060a, 4-((2,5-Dihydroxy-4-carboxyphenyl)methoxymethyl)-2,5-dihydroxybenzoic acid] |  | 41.38 | 114 | 51 | 86.8 |  | 1.3 | 
13 | O=C(O)Cc1cc(O)c(C(=O)Nc2ccccc2C(=O)O)cc1O [IIIa-001a, 2-(4-(carboxymethyl)-2,5-dihydroxybenzamido)benzoic acid] | 62 | 30.4 | 32 | 10 | 74.8 |  |  | 
